From ChEMBL document CHEMBL1201862, “PubChem BioAssay data set” (2004)
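Values below derive from 48-hour exposures of cells grown in 96-well plates, with endpoints linearly interpolated between the two concentrations bracketing the appropriate inhibition level. GI50 = concentration required for 50% inhibition of growth.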 Calls of active or inactive are those of the source. Cut-off read from the data, not from the text of the source: active = GI50 up to about 1.1 µM and inactive = higher.

Columns and labels:
Test in all cases: inhibition of tumour cell growth, NCI panel, 48 h
LXFL 529 = tested on: LXFL 529
DMS-273 = tested on: DMS-273
A549 = tested on: A549
SK-MEL-2 = tested on: SK-MEL-2
U-251 = tested on: U-251
Malme-3M = tested on: Malme-3M
OVCAR-5 = tested on: OVCAR-5
SN12C = tested on: SN12C
K562 = tested on: K562
OVCAR-8 = tested on: OVCAR-8
XF498 = tested on: XF498
SK-MEL-5 = tested on: SK-MEL-5
NCI-H460 = tested on: NCI-H460
MOLT-4 = tested on: MOLT-4
HCT-15 = tested on: HCT-15
SR = tested on: SR
KM12 = tested on: KM12
SNB-78 = tested on: SNB-78
SW-620 = tested on: SW-620
786-0 = tested on: 786-0
SF-268 = tested on: SF-268
HT-29 = tested on: HT-29
OVCAR-4 = tested on: OVCAR-4
IGROV-1 = tested on: IGROV-1
CCRF-CEM = tested on: CCRF-CEM
EKVX = tested on: EKVX
COLO 205 = tested on: COLO 205
HOP-62 = tested on: HOP-62
SK-MEL-28 = tested on: SK-MEL-28
NCI-H522 = tested on: NCI-H522
HCC 2998 = tested on: HCC 2998
M14 = tested on: M14
HCT-116 = tested on: HCT-116
HL-60 = tested on: HL-60
SNB-75 = tested on: SNB-75
M19-MEL = tested on: M19-MEL
SF-539 = tested on: SF-539
OVCAR-3 = tested on: OVCAR-3
KM-20L2 = tested on: KM-20L2
SF-295 = tested on: SF-295
RXF 393 = tested on: RXF 393
TK-10 = tested on: TK-10
UACC-62 = tested on: UACC-62
LOX IMVI = tested on: LOX IMVI
ACHN = tested on: ACHN
UO-31 = tested on: UO-31
RPMI-8226 = tested on: RPMI-8226
NCI-H226 = tested on: NCI-H226
NCI-H23 = tested on: NCI-H23
SNB-19 = tested on: SNB-19
DMS-114 = tested on: DMS-114
HOP-92 = tested on: HOP-92
UACC-257 = tested on: UACC-257
CAKI-1 = tested on: CAKI-1
A498 = tested on: A498
DLD-1 = tested on: DLD-1

COc1ccc(CNc2cnc3cc(N)ccc3n2)cc1
GI50 (LXFL 529): > 100 µM (inactive)
GI50 (DMS-273): > 100 µM (inactive)
GI50 (A549): > 100 µM (inactive)
GI50 (SK-MEL-2): > 100 µM (inactive)
GI50 (U-251): > 100 µM (inactive)
GI50 (Malme-3M): > 100 µM (inactive)
GI50 (OVCAR-5): > 100 µM (inactive)
GI50 (SN12C): > 100 µM (inactive)
GI50 (K562): > 100 µM (inactive)
GI50 (OVCAR-8): > 100 µM (inactive)
GI50 (XF498): > 100 µM (inactive)
GI50 (SK-MEL-5): > 100 µM (inactive)
GI50 (NCI-H460): > 100 µM (inactive)
GI50 (MOLT-4): 69 µM (inactive)
GI50 (HCT-15): > 100 µM
GI50 (SR): 55.3 µM (inactive)
GI50 (KM12): > 100 µM (inactive)
GI50 (SNB-78): > 100 µM (inactive)
GI50 (SW-620): > 100 µM (inactive)
GI50 (786-0): > 100 µM (inactive)
GI50 (SF-268): > 100 µM (inactive)
GI50 (HT-29): > 100 µM (inactive)
GI50 (OVCAR-4): > 100 µM (inactive)
GI50 (IGROV-1): > 100 µM (inactive)
GI50 (CCRF-CEM): 30 µM (inactive)
GI50 (EKVX): > 100 µM (inactive)
GI50 (COLO 205): > 100 µM (inactive)
GI50 (HOP-62): > 100 µM (inactive)
GI50 (SK-MEL-28): > 100 µM (inactive)
GI50 (NCI-H522): > 100 µM (inactive)
GI50 (HCC 2998): > 100 µM (inactive)
GI50 (M14): > 100 µM (inactive)
GI50 (HCT-116): > 100 µM (inactive)
GI50 (HL-60): 77.1 µM (inactive)
GI50 (SNB-75): 52.6 µM (inactive)
GI50 (M19-MEL): > 100 µM (inactive)
GI50 (SF-539): > 100 µM (inactive)
GI50 (OVCAR-3): > 100 µM (inactive)
GI50 (KM-20L2): > 100 µM (inactive)
GI50 (SF-295): 94.4 µM (inactive)
GI50 (RXF 393): > 100 µM (inactive)
GI50 (TK-10): > 100 µM (inactive)
GI50 (UACC-62): > 100 µM (inactive)
GI50 (LOX IMVI): > 100 µM (inactive)
GI50 (ACHN): > 100 µM (inactive)
GI50 (UO-31): 26.4 µM (inactive)
GI50 (RPMI-8226): 42.8 µM (inactive)
GI50 (NCI-H226): 80.7 µM (inactive)
GI50 (NCI-H23): > 100 µM (inactive)
GI50 (SNB-19): 69 µM (inactive)
GI50 (DMS-114): > 100 µM (inactive)

CCN/C(=N\Nc1ccc([N+](=O)[O-])cc1)P(=O)(OC(C)C)OC(C)C
GI50 (HOP-92): 66.5 µM (inactive)
GI50 (LXFL 529): > 100 µM (inactive)
GI50 (DMS-273): > 100 µM (inactive)
GI50 (A549): > 100 µM (inactive)
GI50 (SK-MEL-2): > 100 µM (inactive)
GI50 (U-251): > 100 µM (inactive)
GI50 (Malme-3M): 51.2 µM (inactive)
GI50 (OVCAR-5): > 100 µM (inactive)
GI50 (SN12C): > 100 µM (inactive)
GI50 (K562): > 100 µM (inactive)
GI50 (OVCAR-8): > 100 µM (inactive)
GI50 (XF498): 66.5 µM (inactive)
GI50 (SK-MEL-5): 41.1 µM (inactive)
GI50 (NCI-H460): > 100 µM (inactive)
GI50 (UACC-257): 68.1 µM (inactive)
GI50 (MOLT-4): > 100 µM (inactive)
GI50 (HCT-15): > 100 µM
GI50 (SR): > 100 µM (inactive)
GI50 (KM12): > 100 µM (inactive)
GI50 (SNB-78): > 100 µM (inactive)
GI50 (SW-620): > 100 µM (inactive)
GI50 (786-0): > 100 µM (inactive)
GI50 (SF-268): > 100 µM (inactive)
GI50 (CAKI-1): > 100 µM (inactive)
GI50 (OVCAR-4): 44.2 µM (inactive)
GI50 (CCRF-CEM): > 100 µM (inactive)
GI50 (EKVX): > 100 µM (inactive)
GI50 (COLO 205): > 100 µM (inactive)
GI50 (HOP-62): 95.9 µM (inactive)
GI50 (SK-MEL-28): 99.8 µM (inactive)
GI50 (NCI-H522): > 100 µM (inactive)
GI50 (HCC 2998): > 100 µM (inactive)
GI50 (M14): > 100 µM (inactive)
GI50 (HCT-116): > 100 µM (inactive)
GI50 (HL-60): > 100 µM (inactive)
GI50 (SNB-75): 49.9 µM (inactive)
GI50 (M19-MEL): > 100 µM (inactive)
GI50 (SF-539): > 100 µM (inactive)
GI50 (OVCAR-3): > 100 µM (inactive)
GI50 (KM-20L2): > 100 µM (inactive)
GI50 (TK-10): > 100 µM (inactive)
GI50 (UACC-62): 64 µM (inactive)
GI50 (LOX IMVI): > 100 µM (inactive)
GI50 (ACHN): > 100 µM (inactive)
GI50 (UO-31): > 100 µM (inactive)
GI50 (RPMI-8226): > 100 µM (inactive)
GI50 (NCI-H226): 25.8 µM (inactive)
GI50 (NCI-H23): > 100 µM (inactive)
GI50 (SNB-19): > 100 µM (inactive)
GI50 (DMS-114): > 100 µM (inactive)
GI50 (A498): > 100 µM (inactive)
GI50 (DLD-1): > 100 µM (inactive)
